Experiments:
Type in all cases: functional
[1] = tested on: Pneumocystis carinii; assay: Efficacy of compound was evaluated in rat infected with Pneumocystis carinii at a dose of 2 mg/Kg administered intraperitoneally
[2] = tested on: Pneumocystis carinii; assay: Efficacy of compound was evaluated in rat infected with Pneumocystis carinii at a dose of 2 mg/Kg administered subcutaneously
[3] = tested on: Pneumocystis carinii; assay: Efficacy of compound was evaluated in rat infected with Pneumocystis carinii at a dose of 2 mg/Kg administered orally

SMILES | Infection score [1] | Infection score [2] | Infection score [3]
CCOc1ccc(Oc2c(OC)cc(NC(C)CCCN)c3nccc(C)c23)cc1 (stereo unspecified) | 0 |  | 
COc1cc(NC(C)CCCN)c2ncccc2c1 (stereo unspecified) [PRIMAQUINE] |  | 4.3 | 
CCCCCCCCCCCCCCCCOc1ccc(Oc2c(OC)cc(NC(C)CCCN)c3nccc(C)c23)cc1 (stereo unspecified) | 4.5 |  | 
CCCCCCCOc1ccc(Oc2c(OC)cc(NC(C)CCCN)c3nccc(C)c23)cc1 (stereo unspecified) | 0.71 |  | 1.25
COc1cc(Cc2cnc(N)nc2N)cc(OC)c1OC.Cc1cc(NS(=O)(=O)c2ccc(N)cc2)no1 [CO-TRIMOXAZOLE] | 1.31 |  | 

From ChEMBL document CHEMBL1133483, “Enhanced pneumocystis carinii activity of new primaquine analogues” (2000)
